Source: patent publication US9421254B2, “Immunostimulatory combinations of TLR ligands and methods of use” (The United States of America, as represented by the …, priority 2007, dated 2016)
Entries after “also recorded” stand apart in the source; their conditions may differ.

Legend:
BMDCs [1] = assay: Intracellular IL-12 and CD86 on BMDCs treated in vitro with TLR ligands (flow cytometry); conditions: for inducing IL-12 production from DCs / upregulation of CD86 expression: TLR4 ligand alone; for inducing IL-12 production from DCs: relative to MALP-2+PolyI:C and PolyI:C+CpG; for upregulation of CD86 expression: relative to PolyI:C, FIG. 9B; for synergy with PolyI:C in IL-12 production: TLR2 ligand combined with PolyI:C
purified T cells = assay: Purified T cells cultured with recombinant cytokines/chemokines (CD69); format: cell-based, mouse; conditions: added to MyD88-dependent cytokines; FIG. 12B
Procedure: Panel (A) is a graph showing the results when BMDC pretreated with MALP-2+PolyI:C were cultured with purified T cells in the presence of neutralizing antibodies against cytokines as indicated. CD69+ T cells were measured 24 hours later. Panel (B) is a graph showing the results when purified T cells were culture in the presence of IL-12 (25 ng/ml), TNFa (10 ng/ml), MIP-1a (50 ng/ml) and IP-10 (25 ng/ml) singly or in combinations as indicated. CD69+CD8+ T cells were measured after 24 hours of treatment.
As there are several MyD88-dependent inflammatory cytokines that are produced downstream of the JNK/c-Jun pathway, blocking one of these cytokines may not be expected to abolish the synergy effect.

BMDCs [2] = assay: Secreted cytokines/chemokines from BMDCs treated in vitro with TLR ligands (multiplex); format: cell-based, mouse; conditions: FIG. 3D
[3] = system: popliteal LN MHC class II+CD11c+ DCs; assay: DC activation in popliteal LNs after footpad immunization with TLR ligands; format: in vivo, mice; conditions: FIG. 5D
Procedure: Mice were immunized in the footpads with MALP-2, PolyI:C and CpG singly or pairwise. Paired popliteal LN cells were isolated 36 hours later for assay by flow cytometry. […] Panel (D) is a graph showing CD86 expression on DCs.
If this hypothesis were true, it may be expected that use of synergistic combinations of TLRs as adjuvant would result in similar activation of DCs in vivo. To test this hypothesis, DCs were isolated from popliteal LNs following footpad immunization with TLR ligands and examined ex vivo. […] Therefore, the interplay of TLRs in activating DCs in vivo is nonrandom and mediated through potentiating MyD88-dependent cytokines that could account for the activation of specific T cells.

Row | Compound | inducing IL-12 production from DCs (BMDCs [1]) | upregulation of CD86 expression (BMDCs [1]) | synergy with PolyI:C in IL-12 production (BMDCs [1]; FIG. 9A) | further results
1 | CCCCCCCCCCCC(=O)CC(=O)N[C@H](COCC[C@@H](CCCCCCC)OC(=O)CCCCCCCCCCC)COP(=O)(O)OCCNC(=O)NCCOP(=O)(O)OC[C@@H](COCC[C@@H](CCCCCCC)OC(=O)CCCCCCCCCCC)NC(=O)CC(=O)CCCCCCCCCCC [E6020] | equivalent | efficacy equivalent to PolyI:C |  | 
2 | IP-10: Recombinant IP-10 protein purchased from Peprotech |  |  |  | enhancement of the CD69 response already induced by the MyD88-dependent cytokines (purified T cells): did not significantly enhance
3 | Lipoteichoic acids [LTA] |  |  | could also act synergistically and did | 
4 | PAM3CSK4 |  |  | could not; also recorded: did not synergize | 
5 | lipopolysaccharide [LPS] | equivalent | efficacy equivalent to PolyI:C |  | 
6 | macrophage activating lipoprotein (MALP-2) |  |  | did | further increase in IP-10 production compared to PolyI:C alone (BMDCs [2]; ligand added to PolyI:C): did not result in a further increase; increase in CD86 by LN DCs when ligand included with PolyI:C [3]: no significant increases; further increase in CD86 expression compared to PolyI:C alone (BMDCs [1]; ligand added to PolyI:C, FIG. 3C): did not result in a further increase
7 | monophosphoryl lipid A [MPL] | equivalent | efficacy equivalent to PolyI:C |  | 
8 | polyinosine-polycytidylic acid [PolyI:C] |  |  |  | IP-10 production by DCs (BMDCs [2]; ligand alone): produce IP-10; expression of CD86 by LN DCs ([3]; ligand alone): upregulated; IL-12 production on addition to the TLR4 stimulation (BMDCs [1]; FIG. 9A): did not further enhance; CD86 expression on DCs (BMDCs [1]; ligand alone, FIG. 3C): upregulate CD86 expression
